# Measurements as given in patent publication US20180258100A1, “RAPAMYCIN ANALOGS SHOWING IMPROVED mTORC1 SPECIFICITY” (priority 2015, published 2018).
# Legend:
# [1] = Insulin challenge response; type: in vivo, female C57BL/6J mice; settings: 0.75 IU/kg insulin after 2 weeks; rapamycin 8 mg/kg, compound 390 12 mg/kg i.p. every other day
# Experimental: FIG. 10. Response to insulin challenge following administration of 0.75 IU/kg insulin at t=2 weeks following the initiation of the intraperitoneal administrations of 8 mg/kg rapamycin, 12 mg/kg compound 390 or vehicle control every other day in female mice (N=5).
# (§1) 10-week old female C57BL/6J mice were given intraperitoneal injections of 8 mg/kg rapamycin (LC laboratories), 12 mg/kg compound 390 or vehicle every other day for three weeks (N=5 mice/group), such as to mimic chronic exposure conditions. 24 hours after the last injection, tissues were dissected from the mice and immediately frozen in liquid nitrogen. The tissues were homogenized using the Omni TH homogenizer (Omni International) on ice in RIPA buffer and then centrifuged at 13,000 rpm for 15 minutes at 4° C. The supernatants were collected and protein concentration was determined using the DC protein assay (Biorad).
# mTORC1 [2] = biological target: T1, mTORC1 (Homo sapiens, UniProt P42345+P62942); assay: Western blot of PC3 cells treated with 100 nM compound, mTORC1 readout (pS6k/S6k); type: cell-based
# T1 construct: endogenous in cells; host or cells: PC3 cells
# Experimental: Protein concentrations were determined using the DC protein assay (Biorad). Equal amounts of protein were resolved by SDS-PAGE and transferred to nitrocellulose membrane using the Nu-Page system. […] The following day, blots were washed 3 times in TBST, incubated for 2 h with secondary antibodies, and finally washed an additional 3 times in TBST.
# [3] = test system: autophagy markers (pULK/ULK, Beclin-1, Vps34, LC3B, p62); assay: Autophagy markers in brain of Tg4510 mice; type: in vivo; settings: 12 mg/kg i.p., 4 weeks
# Experimental: Female Tg4510 and control mice were purchased from the Jackson Laboratory (Bar Harbor, Me.). All mice were examined and weighed prior to initiation of the study to ensure adequate health and suitability and were caged under controlled temperature (20-23° C.) and relative humidity (maintained around 50%). All tests were performed during the animal's light cycle phase. Mice received every-other-day injections of either vehicle or compound 390 (12 mg/kg) in the following groups: (a) wild-type (WT) mice receiving vehicle (n=16); (b) Tg4510 mice receiving vehicle (n=15) and (c) Tg4510 mice receiving DL390 (12 mg/kg; n=15)
# A number of autophagy markers were measured both in the cortex and hippocampus tissue to assess the status of the autophagic clearance mechanism across the three study groups. Specifically, pULK/ULK, Beclin-1, Vps34, LC3B and p62 were measured using the appropriate antibodies (Cell Signaling Technology).
# [4] = Glucose challenge response; type: in vivo, female C57BL/6J mice; settings: 2 mg/kg glucose after 1 week; rapamycin 8 mg/kg, compound 390 12 mg/kg i.p. every other day
# Experimental: as §1
# Steady state glucose levels were determined after one week from study initiation using a Bayer Contour blood glucose meter and test strips from small blood samples, which were withdrawn from a tail vein nick. […]
# mTORC2 = biological target: T2, mTORC2 (Homo sapiens, UniProt P42345+P62942); assay: AlphaLISA SureFire Akt 1/2/3 in PC3 cells, phosphorylation of Akt at Ser473 (mTORC2 inhibition); type: cell-based
# T2 construct: endogenous in cells; host or cells: PC3 cells
# Experimental: PC3 cells were maintained in F12K media (ATCC/GIBCO, Cat# ATCC 30-2004) supplemented with additional 10% FBS (Gemini, cat#100-106), 1% Penicillin/Streptomycin (Life Technologies, cat #15140-122), and 2 mM L-Glutamine (Life Technologies, cat#25030) and cultured at 37° C. For AlphaLISA experiments, cells were seeded in 96-well plates for 24 hours and treated at various concentrations of compound (from approx. 8 fM to 10 μM) for 24 hours. Cells were harvested by lysis in the buffer supplied with the AlphaLISA kit.
# mTORC1 inhibition was determined using the AlphaLISA® SureFire® kit (Perkin Elmer) which measures phosphorylation of S6 kinase at positions Ser^240 and Ser^244. mTORC2 inhibition was determined by the AlphaLISA® SureFire® kit for Akt 1/2/3, which determines phospholyltation of Akt protein at position Ser^473. Cells from plates were lysed and incubated for 10 min at room temperature while shaking. Cell lysates were incubated with acceptor mix for 2 hours at room temperature; the donor mix was then added and the resulting solution was incubated for 2 hours at room temperature. AlphaLISA® signal was determined on a Fusion-Alpha FP HT (Perkin Elmer). Percent inhibition was calculated by comparison to the highest inhibition value obtained in the response-concentration curve. IC50s were calculated using Prism software. […]
# [5] = Steady state glucose levels after one week of i.p. dosing; type: in vivo, female C57BL/6J mice; settings: 12 mg/kg i.p. every other day, versus vehicle
# Experimental: as §1
# Steady state glucose levels were determined after one week from study initiation using a Bayer Contour blood glucose meter and test strips from small blood samples, which were withdrawn from a tail vein nick. At the end of the second week, the animals were challenged by administration of 2 mg/kg glucose; glucose levels were determined for two hours following the challenge at 30 min intervals.
# mTORC1 [6] = biological target: T3, mTORC1 (Mus musculus, UniProt P26883+Q9JLN9); assay: Western blot of mouse tissues after 3 weeks i.p. dosing, mTORC1 (P-S6/total S6); type: in vivo, female C57BL/6J mice; settings: 12 mg/kg i.p. every other day for 3 weeks
# Experimental: as §1
# The mTORC1/2 inhibition was determined by Western blots. Equal amounts of protein were resolved by SDS-PAGE and transferred to nitrocellulose membrane using the Invitrogen Nu-Page system. The membranes were blocked for 1 h in 5% milk and incubated overnight in the appropriate antibodies. The following day, blots were washed 3 times in TBST, incubated for 2 h with secondary antibodies (donkey anti rabbit hrp conjugated), and finally washed an additional 3 times in TBST. ECL Prime (Amersham) was used to detect the proteins of interest and ImageJ software was used to quantify the band intensity of the Western blots.
# mTORC1 [7] = biological target: T3, mTORC1; assay: Immunoblot of liver, muscle and brain after four weeks, mTORC1; type: in vivo, male C57BL/6J mice; settings: rapamycin 8 mg/kg, compound 390 12 mg/kg i.p. every other day
# Experimental: Fortyfive C57BL/6J male mice, housed three per cage, were weighed and their body composition was measured with an EchoMRI 3-in-1 system. […] Mice received every-other-day injections of either vehicle, rapamycin (8 mg/kg), or compound 390 (12 mg/kg). A glucose tolerance test was performed after 2 weeks (morning after the 8th injection). A pyruvate tolerance test was performed after 3 weeks. Glucose stimulated insulin secretion assay was performed after 4 weeks and additional blood was collected for whole blood analysis. Body composition was measured on day −2 and day 31.
# For western blotting, antibodies to phospho-Akt S473 (4060), Akt (4691), phospho-S6 ribosomal protein (2215), S6 ribosomal protein (2217), phospho-4E-BP1 S65 (9451) and 4E-BP1 (9452) were from Cell Signaling Technology.
# Cells and tissue samples were lysed in cold RIPA buffer supplemented with phosphatase inhibitor and protease inhibitor cocktail tablets (PI88669, Fisher Scientific). Tissues were lysed in RIPA buffer using a FastPrep 24 (M.P. Biomedicals) with bead-beating tubes and ceramic beads (Mo-Bio Laboratories), and then centrifuged. Protein concentration was determined by Bradford assay (Pierce Biotechnology). Protein was separated by sodium dodecylsulphate-polyacrylamide gel electrophoresis (SDS-PAGE) on 8, 10, or 16% resolving gels (Life Technologies).
# T2 sequence (P62942 2-108 limits assumed, other chains not shown): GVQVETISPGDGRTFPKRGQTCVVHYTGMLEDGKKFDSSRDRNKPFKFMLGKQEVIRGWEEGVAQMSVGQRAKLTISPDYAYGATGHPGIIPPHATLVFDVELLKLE
smiles,measurement,setting,value
"CO[C@H]1CC2CC[C@@H](C)[C@@](O)(O2)C(=O)C(=O)N2CCCC[C@H]2C(=O)O[C@H]([C@@H](C)CC2CCC(O)CC2)CC(=O)[C@@H](C)/C=C(\C)[C@H](O)[C@H](O)C(=O)[C@@H](C)C[C@H](C)/C=C/C=C/C=C/1C (stereo partly shown) [compound 390, 27-O-Desmethyl-39-Desmethoxy Rapamycin]",glucose response after insulin challenge (insulin resistance),[1],indistinguishable from the vehicle-receiving control animals
same,mTORC1 inhibition (pS6k/S6k),mTORC1 [2],full mTORC1 inhibition
same,Beclin-1 activity (initiation phase of autophagy),[3],nearly full restoration of Beclin-1 activity
same,ULK1 phosphorylation (induction phase of autophagy),[3],reduction of ULK1 phosphorylation
same,accumulated LC3B-II levels (maturation and lysosomal clearance),[3],substantial reduction
same,accumulated p62 levels (maturation and lysosomal clearance),[3],substantial reduction
same,"autophagy in the brain, all stages",[3],substantial and statistically significant upregulation
same,glucose response after glucose challenge (glucose intolerance),[4],indistinguishable from the vehicle-receiving control animals
same,lower inhibition of mTORC2 compared to rapamycin,mTORC2,~150 fold
same,change of steady state glucose plasma levels,[5],does not produce any substantial or statistically significant increase
same,mTORC1 inhibition in tissues,mTORC1 [6]; soleus muscle and liver,only partially inhibits mTORC1
same,mTORC1 inhibition in tissues,"mTORC1 [6]; visceral fat, gastrocnemius muscle, pancreas, lung and kidney",strong inhibition of mTORC1
same,"mTORC1 inhibition in liver, muscle and brain",mTORC1 [7],significantly inhibits mTORC1 at approximately the same level as rapamycin
